Assay results reported in patent US20220273678A1 (priority 2020, published 2022).

Legend:
[1] = test system: SARS-CoV-2 Delta variant; assay type: cell-based; details: 1000 nM Mito-MES; 1000 nM dTPP; CoQ10 1000-2000 nM
[2] = test system: SARS-CoV-2 Beta variant; assay type: cell-based; details: for antiviral activity against Beta variant, viral titer assay: hACE2 HEK293T, 1000 nM dTPP, CoQ10 1000-2000 nM
[3] = test system: SARS-CoV-2 Delta variant; set-up: species or system mice; details: mouse, in vivo
[4] = test system: SARS-CoV-2 Beta; assay: microbe, parasite or virus in culture; assay type: cell-based; details: Severe acute respiratory syndrome coronavirus 2, Calu-3
[5] = test system: SARS-CoV-2 Delta variant; assay: microbe, parasite or virus in culture; assay type: cell-based; details: Severe acute respiratory syndrome coronavirus 2, Calu-3
[6] = test system: SARS-CoV-2 Beta variant; set-up: species or system mice; details: mouse, in vivo

SMILES | antiviral activity against Delta variant in ALI lung cultures [1] | time-of-addition study, intracellular N protein [2] | antiviral activity against Beta variant, viral titer assay [2] | SARS-CoV-2 N protein in lungs, ELISA [3] | reduction of viral titer relative to vehicle ([3]; po, 20 mg/kg) [log units] | IC50 [4] [nM] | IC50 [5] [nM] | IL-lb, IL-6, TNFa in the lung [6] | cleaved caspase 3 in lung, immunofluorescence [6] | frequency of NK cells in lungs [6] | histopathology: lung inflammation and tissue damage [6]
CCCCCCCCCC[P+](c1ccccc1)(c1ccccc1)c1ccccc1.[Br-] [dTPP] | potent antiviral activity | reduced SARS-CoV-2 entry and had less impact on SARS-CoV-2 cytoplasmic replication | potent antiviral activity |  |  |  |  |  |  |  | 
COC1=C(OC)C(=O)C(C/C=C(\C)CC/C=C(\C)CC/C=C(\C)CC/C=C(\C)CC/C=C(\C)CC/C=C(\C)CC/C=C(\C)CC/C=C(\C)CC/C=C(\C)CCC=C(C)C)=C(C)C1=O [CoQ10, Coenzyme Q10] | only higher concentrations (1000-2000 nM) |  | only higher concentrations (1000-2000 nM) |  |  |  |  |  |  |  | 
COC1=C(OC)C(=O)C(CCCCCCCCCC[P+](c2ccccc2)(c2ccccc2)c2ccccc2)=C(C)C1=O.CS(=O)(=O)[O-] [Mito-MES, 10-(4,5-dimethoxy-2-methyl-3,6-dioxo-1,4-cyclohexadienyl) decyl triphenylphosphonium methanesulfonate] | inhibited SARS-CoV-2 Delta variants in ALI lung cultures | also even when added 4 hours after infection |  | further confirmed by ELISA | ~3 | 34 | 41 | reduction in IL-lb, IL-6, TNFa | inhibited SARS-CoV-2-associated increase in cleaved caspase 3 | reduced frequency of NK cells | reduction of lung inflammation and tissue damage
